Among the data in patent publication US11976083B2, “Inhibitors of peptidylarginine deiminases” (Gilead Sciences, Inc., priority 2020, dated 2024) are IC50 values, retold here.

T1 sequence (Q9UM07 2-663): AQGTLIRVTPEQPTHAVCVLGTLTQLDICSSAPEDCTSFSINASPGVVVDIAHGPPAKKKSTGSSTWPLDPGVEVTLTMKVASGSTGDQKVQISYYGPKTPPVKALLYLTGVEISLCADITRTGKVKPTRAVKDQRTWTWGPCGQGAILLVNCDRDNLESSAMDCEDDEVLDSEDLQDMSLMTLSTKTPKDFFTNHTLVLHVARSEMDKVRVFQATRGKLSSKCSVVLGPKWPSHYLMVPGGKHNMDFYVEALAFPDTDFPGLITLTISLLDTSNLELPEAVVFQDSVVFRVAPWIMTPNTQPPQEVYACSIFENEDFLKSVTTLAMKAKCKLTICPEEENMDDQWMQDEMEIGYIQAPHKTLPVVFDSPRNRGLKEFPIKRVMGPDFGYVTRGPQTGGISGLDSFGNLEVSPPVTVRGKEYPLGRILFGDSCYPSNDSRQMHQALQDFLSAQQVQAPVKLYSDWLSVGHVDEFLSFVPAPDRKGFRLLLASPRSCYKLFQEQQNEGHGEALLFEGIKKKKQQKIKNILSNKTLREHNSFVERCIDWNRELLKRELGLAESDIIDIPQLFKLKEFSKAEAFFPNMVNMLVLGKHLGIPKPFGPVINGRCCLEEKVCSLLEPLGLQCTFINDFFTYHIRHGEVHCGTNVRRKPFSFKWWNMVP

This test addresses T1, human PAD4 (Homo sapiens, UniProt Q9UM07).
T1 construct: human PAD4 (NM_012387), A2-P663, was PCR amplified; His-SUMO (N, cleaved yes); made in house; host or cells: E. coli BL21(DE3)
The test can be described thus: In vitro PAD4 BAEE biochemical assay. Particulars: BAEE substrate 3 mM, 5 nM PAD4, 2 mM calcium chloride; geometric mean of multiple experiments. Put shortly:
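Ammonia produced by BAEE deimination (3 mM substrate, 2 h, 25 °C) was read as fluorescent isoindole after o-phthalaldehyde/DTT derivatization, ex 405 nm/em 535 nm. Human PAD4 at 5 nM final, 2 mM calcium, pH 7.6 MOPS; compound preincubated 30 min. IC50s, normalized to BB-Cl-Amidine and DMSO controls, were geometric-mean averaged.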
With `CO[C@@H]1CCN(C(=O)c2cc(F)c3c(c2)nc(-c2cc4ccc5nc4n2CCCCC[C@]2(F)C[C@H]2C(=O)N[C@@H]5C)n3C2CC2)C[C@@H]1N` [Example 704, (2~{R},5~{S},7~{S})-14-[5-[(3~{S},4~{R})-3-amino-4-methoxy-piperidine-1-carbonyl]-1-cyclopropyl-7-fluoro-benzimidazol-2-yl]-7-fluoro-2-methyl-3,13,19-triazatetracyclo[11.5.2.0^ {5,7}.0^{16,20}]icosa-1(19), 14,16(20),17-tetraen-4-one], the IC50 was 31 nM.
With `C[C@@H]1[C@H](N)CCCN1C(=O)c1cc(F)c2c(c1)nc(-c1cc3ccc4nc3n1CCCCC[C@]1(F)C[C@H]1C(=O)N[C@@H]4C)n2C1CC1` [Example 705, (2~{R},5~{S},7~{S})-14-[5-[(2~{R},3~{R})-3-amino-2-methyl-piperidine-1-carbonyl]-1-cyclopropyl-7-fluoro-benzimidazol-2-yl]-7-fluoro-2-methyl-3,13,19-triazatetracyclo[11.5.2.0^ {5,7}.0^{16,20}]icosa-1(19),14,16(20),17-tetraen-4-one] the figure was 20 nM.
Under `COc1cc(C(=O)N2CCC[C@@H](N)[C@H]2C)cc2nc(-c3cc4ccc5nc4n3CCCCC[C@]3(F)C[C@H]3C(=O)N[C@@H]5C)n(C)c12` [Example 706, (2~{R},5~{S},7~{S})-14-[5-[(2~{R},3~{R})-3-amino-2-methyl-piperidine-1-carbonyl]-7-methoxy-1-methyl-benzimidazol-2-yl]-7-fluoro-2-methyl-3,13,19-triazatetracyclo[11.5.2.0^ {5,7}.0^{16,20}]icosa-1(19),14,16(20),17-tetraen-4-one] stands 19 nM; under `COc1cc(C(=O)N2C[C@H]3OC[C@@H]2[C@@H]3N)cc2nc(-c3cc4ccc5nc4n3CC(F)(F)CCC[C@@H]3C[C@H]3C(=O)N[C@@H]5C)n(C)c12` [Example 707, (2~{R},5~{R},7~{R})-14-[5-[(1~{R},4~{S},7~ {S})-7-amino-2-oxa-5-azabicyclo[2.2.1]heptane-5-carbonyl]-7-methoxy-1-methyl-benzimidazol-2-yl]-11,11-difluoro-2-methyl-3,13,19-triazatetracyclo[11.5.2.0^ {5,7}.0^{16,20}]icosa-1(19),14,16(20),17-tetraen-4-one], 21 nM; under `COc1cc(C(=O)N2C[C@H]3OC[C@@H]2[C@@H]3N)cc2nc(-c3cc4ccc5nc4n3CCCCCCC(C)(C)C(=O)N[C@@H]5C)n(C)c12` [Example 708, (11~{R})-17-[5-[(1~{R},4~{S), 7~{S})-7-amino-2-oxa-5-azabicyclo[2.2.1]heptane-5-carbonyl]-7-methoxy-1-methyl-benzimidazol-2-yl]-8,8,11-trimethyl-1,10,19-triazatricyclo[10.5.2.0^ {15,18}]nonadeca-12(19),13,15(18),16-tetraen-9-one], 91 nM.
Under `C[C@H]1NC(=O)c2ccc(Cl)nc2CC[C@@H]2C[C@@H]2Cn2c(-c3nc4cc(C(=O)N5C[C@H](N)[C@@H]6CC[C@H]5C6)cc(F)c4n3C3CC3)cc3ccc1nc32` [Example 709, (3~{S),5~{R},16~{R})-22-[5-[(1~{S},4~{R},5~ {R})-4-amino-2-azabicyclo[3.2.1]octane-2-carbonyl]-1-cyclopropyl-7-fluoro-benzimidazol-2-yl]-10-chloro-16-methyl-1,9,15,24-tetrazapentacyclo[15.5.2.0^ {3,5}.0^{8,13}.0^{20,23}] tetracosa-8(13),9,11, 17(24),18,20(23),21-heptaen-14-one] stands 25 nM.
For `C[C@H]1NC(=O)c2ccc(Cl)nc2CC[C@H]2C[C@H]2Cn2c(-c3nc4cc(C(=O)N5C[C@H](N)[C@@H]6CC[C@H]5C6)cc(F)c4n3C3CC3)cc3ccc1nc32` [Example 710, (3~{R),5~{S},16~{R})-22-[5-[(1~{S},4~{R},5~{R})-4-amino-2-azabicyclo[3.2.1]octane-2-carbonyl]-1-cyclopropyl-7-fluoro-benzimidazol-2-yl]-10-chloro-16-methyl-1,9,15,24-tetrazapentacyclo[15.5.2.0^ {3,5}.0^{8,13}.0^{20,23}] tetracosa-8(13),9,11,17(24), 18,20(23),21-heptaen-14-one], the IC50 was found to be 18 nM.
With `COc1cc(C(=O)N2C[C@H](N)[C@@H]3CC[C@H]2C3)cc2nc(-c3cc4ccc5nc4n3CCCCC[C@@]3(F)C[C@H]3C(=O)N[C@@H]5C)n(C)c12` [Example 711, (2~{R},5~{S},7~{R})-14-[5-[(1~{S),4~{R},5~{R})-4-amino-2-azabicyclo[3.2.1]octane-2-carbonyl]-7-methoxy-1-methyl-benzimidazol-2-yl]-7-fluoro-2-methyl-3,13,19-triazatetracyclo[11.5.2.0^ {5,7}.0^{16,20}]icosa-1(19), 14,16(20),17-tetraen-4-one] the figure was 19 nM; with `C[C@H]1NC(=O)[C@@H]2C[C@]2(F)CCCCCn2c(-c3nc4cc(C(=O)N5C[C@H](N)[C@@H]6CC[C@H]5C6)cc(F)c4n3C3CC3)cc3ccc1nc32` [Example 712, (2~{R},5~{S},7~{R})-14-[5-[(1~{S},4~{R},5~ {R})-4-amino-2-azabicyclo [3.2.1]octane-2-carbonyl]-1-cyclopropyl-7-fluoro-benzimidazol-2-yl]-7-fluoro-2-methyl-3,13,19-triazatetracyclo[11.5.2.0^ {5,7}.0^{16,20}] icosa-1(19),14,16(20), 17-tetraen-4-one], 24 nM; with `COc1cc(C(=O)N2C[C@H](N)[C@@H]3CC[C@H]2C3)cc2nc(-c3cc4ccc5nc4n3CCCCCc3nc(Cl)ccc3C(=O)N[C@@H]5C)n(C)c12` [Example 713, (2~{R})-17-[5-[(1~{S}, 4~{R},5~{R})-4-amino-2-azabicyclo[3.2.1]octane-2-carbonyl]-7-methoxy-1-methyl-benzimidazol-2-yl]-8-chloro-2-methyl-3,9,16,22-tetrazatetracyclo [14.5.2.0^{5,10).0^{19,23}] tricosa-1(22),5(10),6,8,17,19(23), 20-heptaen-4-one], 19 nM.
With `C[C@H]1NC(=O)c2ccc(Cl)nc2CCCCCn2c(-c3nc4cc(C(=O)N5C[C@H](N)[C@@H]6CC[C@H]5C6)cc(OC(F)(F)F)c4n3C)cc3ccc1nc32` [Example 714, (2~{R})-17-[5-[(1~{S},4~{R}, 5~{R})-4-amino-2-azabicyclo [3.2.1]octane-2-carbonyl]-1-methyl-7-(trifluoromethoxy)benzimidazol-2-yl]-8-chloro-2-methyl-3,9,16,22-tetrazatetracyclo[14.5.2.0^ {5,10).0^{19,23}]tricosa-1(22), 5(10),6,8,17,19(23),20-heptaen-4-one] the figure was 40 nM; with `C[C@H]1NC(=O)[C@@H]2C[C@@]2(F)CCCCCn2c(-c3nc4cc(C(=O)N5C[C@H](N)[C@@H]6CC[C@H]5C6)cc(OC(F)(F)F)c4n3C)cc3ccc1nc32` [Example 715, (2~{R},5~{S},7~{S})-14-[5-[(1~{S},4~{R},5~{R})-4-amino-2-azabicyclo[3.2.1]octane-2-carbonyl]-1-methyl-7-(trifluoromethoxy)benzimidazol-2-yl]-7-fluoro-2-methyl-3,13,19-triazatetracyclo[11.5.2.0^ {5,7}.0^{16,20}]icosa-1(19), 14,16(20),17-tetraen-4-one], 19 nM.
